Measurements published in publication PMC7015794 (Biochemistry, 2020).

Tests used:
[1] = target: T1, (1,3)-β-D-glucan synthase (GS), catalytic subunit Fks1p (Saccharomyces cerevisiae, UniProt P38631); experiment: GS activity assay; type: biochemical
[2] = target: T1, (1,3)-β-D-glucan synthase (GS), catalytic subunit Fks1p; experiment: GS activity assay with […] UDP-Glc; type: biochemical

T1 sequence (P38631 whole entry): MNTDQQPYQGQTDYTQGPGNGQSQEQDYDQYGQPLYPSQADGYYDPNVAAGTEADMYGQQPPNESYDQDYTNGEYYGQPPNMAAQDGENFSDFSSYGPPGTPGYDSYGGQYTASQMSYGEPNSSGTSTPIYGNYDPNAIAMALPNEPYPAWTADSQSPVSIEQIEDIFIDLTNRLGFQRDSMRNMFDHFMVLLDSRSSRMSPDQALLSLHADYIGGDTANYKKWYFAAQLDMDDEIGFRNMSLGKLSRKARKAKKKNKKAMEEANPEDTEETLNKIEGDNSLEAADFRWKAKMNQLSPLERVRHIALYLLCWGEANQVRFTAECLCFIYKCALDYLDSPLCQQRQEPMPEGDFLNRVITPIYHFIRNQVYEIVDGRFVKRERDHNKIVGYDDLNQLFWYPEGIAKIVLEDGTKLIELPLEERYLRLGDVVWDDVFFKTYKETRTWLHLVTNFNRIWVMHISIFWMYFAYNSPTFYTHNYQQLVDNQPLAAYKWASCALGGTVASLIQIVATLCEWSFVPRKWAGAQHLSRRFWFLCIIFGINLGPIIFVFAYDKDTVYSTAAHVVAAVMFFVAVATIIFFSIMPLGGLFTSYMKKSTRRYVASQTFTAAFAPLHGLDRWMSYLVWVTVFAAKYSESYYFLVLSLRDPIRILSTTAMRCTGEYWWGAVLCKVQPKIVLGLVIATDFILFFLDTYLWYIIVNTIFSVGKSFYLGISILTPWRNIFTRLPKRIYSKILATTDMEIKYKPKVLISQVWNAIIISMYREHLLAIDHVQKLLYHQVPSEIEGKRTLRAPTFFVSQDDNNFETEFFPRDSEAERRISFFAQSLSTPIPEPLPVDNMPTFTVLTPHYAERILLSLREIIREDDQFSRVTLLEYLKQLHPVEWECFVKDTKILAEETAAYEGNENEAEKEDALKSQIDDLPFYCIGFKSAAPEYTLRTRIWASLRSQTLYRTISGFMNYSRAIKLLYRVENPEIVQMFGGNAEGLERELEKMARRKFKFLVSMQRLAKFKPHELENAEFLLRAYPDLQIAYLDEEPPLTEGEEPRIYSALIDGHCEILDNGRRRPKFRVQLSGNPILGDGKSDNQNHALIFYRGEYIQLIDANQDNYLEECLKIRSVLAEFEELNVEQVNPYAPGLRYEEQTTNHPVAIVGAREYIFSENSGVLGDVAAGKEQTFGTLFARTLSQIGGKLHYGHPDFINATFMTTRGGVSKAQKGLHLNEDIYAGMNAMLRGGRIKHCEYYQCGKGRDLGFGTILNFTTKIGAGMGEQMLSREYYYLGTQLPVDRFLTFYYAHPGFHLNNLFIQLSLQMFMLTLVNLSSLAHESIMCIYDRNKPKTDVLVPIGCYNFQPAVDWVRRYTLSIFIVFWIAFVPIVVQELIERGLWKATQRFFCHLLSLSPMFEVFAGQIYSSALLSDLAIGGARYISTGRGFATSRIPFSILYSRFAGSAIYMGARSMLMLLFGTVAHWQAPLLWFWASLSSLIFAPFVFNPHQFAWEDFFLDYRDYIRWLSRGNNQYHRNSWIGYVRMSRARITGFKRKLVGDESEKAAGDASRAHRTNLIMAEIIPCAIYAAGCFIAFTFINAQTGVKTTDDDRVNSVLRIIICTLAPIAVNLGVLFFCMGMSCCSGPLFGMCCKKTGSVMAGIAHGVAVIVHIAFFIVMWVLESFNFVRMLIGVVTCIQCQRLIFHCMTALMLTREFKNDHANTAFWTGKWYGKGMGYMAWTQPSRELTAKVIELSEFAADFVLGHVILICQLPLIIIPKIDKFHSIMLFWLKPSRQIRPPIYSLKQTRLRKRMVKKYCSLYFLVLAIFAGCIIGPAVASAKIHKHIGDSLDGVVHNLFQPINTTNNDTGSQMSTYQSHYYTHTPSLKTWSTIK
T1 sequence (P06780 2-206, further chain): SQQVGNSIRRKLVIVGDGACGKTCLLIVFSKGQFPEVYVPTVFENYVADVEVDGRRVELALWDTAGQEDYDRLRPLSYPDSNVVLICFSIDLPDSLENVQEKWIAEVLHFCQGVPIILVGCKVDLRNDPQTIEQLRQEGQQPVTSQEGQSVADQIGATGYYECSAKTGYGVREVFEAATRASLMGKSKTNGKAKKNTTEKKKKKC

Row | SMILES | IC50 [1] [µM] | IC50 [2] [µM]
1 | CC[C@H](C)C[C@H](C)CCCCCCCCC(=O)N[C@H]1C[C@@H](O)[C@@H](NCCN)NC(=O)[C@@H]2[C@@H](O)CCN2C(=O)[C@H]([C@H](O)CCN)NC(=O)[C@H]([C@H](O)[C@@H](O)c2ccc(O)cc2)NC(=O)[C@@H]2C[C@@H](O)CN2C(=O)[C@H]([C@@H](C)O)NC1=O [CFN, caspofungin] | 0.238 | 
2 | O=c1ccn([C@@H]2O[C@H](COP(=O)(O)OP(=O)(O)O[C@H]3O[C@H](CO)[C@@H](O)C[C@H]3O)[C@@H](O)[C@H]2O)c(=O)[nH]1 [UDP-3’-dGlc] |  | 2400 ± 200
3 | O=c1ccn([C@@H]2O[C@H](COP(=O)(O)OP(=O)(O)O[C@H]3O[C@H](CO)[C@@H](O)[C@H](F)[C@H]3O)[C@@H](O)[C@H]2O)c(=O)[nH]1 [UDP-3’-F-Glc] |  | 5300 ± 1000
